Assay results taken from PubChem BioAssay (NCI).
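A five-concentration, 48-hour dose response in 96-well plates underlies each endpoint, interpolated linearly between surrounding concentrations. Definition used: TGI = concentration required for complete inhibition of growth.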

Assays:
Experiment in all cases: NCI tumour cell line growth inhibition, 48 h
U251 CNS = system: U251 CNS
RXF 393 renal = system: RXF 393 renal
BT-549 breast = system: BT-549 breast
MOLT-4 leukemia = system: MOLT-4 leukemia
CCRF-CEM leukemia = system: CCRF-CEM leukemia
CAKI-1 renal = system: CAKI-1 renal
HCT-15 colon = system: HCT-15 colon
NCI/ADR-RES ovarian = system: NCI/ADR-RES ovarian
IGROV1 ovarian = system: IGROV1 ovarian
SF-295 CNS = system: SF-295 CNS

| SMILES | TGI (U251 CNS) [µM] | TGI (RXF 393 renal) [µM] | TGI (BT-549 breast) [µM] | TGI (MOLT-4 leukemia) [µM] | TGI (CCRF-CEM leukemia) [µM] | TGI (CAKI-1 renal) [µM] | TGI (HCT-15 colon) [µM] | TGI (NCI/ADR-RES ovarian) [µM] | TGI (IGROV1 ovarian) [µM] | TGI (SF-295 CNS) [µM] |
| --- | --- | --- | --- | --- | --- | --- | --- | --- | --- | --- |
| Cc1cc(S(=O)(=O)Nc2nc3ncccc3[nH]2)c(S)cc1Cl | > 100 | > 100 | > 100 | > 100 | > 100 | > 100 | > 100 | > 100 | > 100 | > 100 |
| O=C1CCCNn2c(nc3ncccc3c2=O)N1 | > 100 | > 100 | > 100 | > 100 | > 100 | > 100 | > 100 | > 100 | > 100 | > 100 |
| COC(=O)C1=C(OC(=O)/C(=C/c2ccccc2)c2ccc(OC)cc2)C(C(=O)OC)[C@@]2(O)[C@@H](C(=O)OC)[C@H](C)C[C@@H]1[C@@H]2C(=O)OC (stereo not given in full) | > 100 | 64.7 | > 100 | > 100 | > 100 | > 100 | > 100 | > 100 | > 100 | > 100 |
| FC(F)(F)c1cc(N(C2c3ccccc3C=Cc3ccccc32)P(Cl)Cl)cc(C(F)(F)F)c1 | 33.8 | 27.1 | 23 | 54.4 | 82.3 | 59 | 45.5 | 21.6 | 92.3 | 41.8 |
| CC(C)(C)OC(=O)[C@@H]1CCC(=O)N1C1(c2ccccc2)c2ccccc2-c2ccccc21 | 73.8 | 32.2 | > 100 | 51.5 | 43.7 | > 100 | > 100 | > 100 | > 100 | 61.1 |
| CCCCc1ccc(Nc2ncc3ncn(COCCO)c3n2)cc1 | > 100 | 86.6 | > 100 | 53.1 | 60.6 | > 100 | > 100 | > 100 | > 100 | 80.1 |
| CCOC(=O)C1CC(C(=O)c2ccccc2)N2c3ccccc3-c3ccccc3C12 (stereo not given) | > 100 | > 100 | > 100 | > 100 | > 100 | > 100 | > 100 | > 100 | > 100 | > 100 |
| CCOC(=O)/C(C(N)=O)=C(\O)C(=O)/C(Br)=C(\O)c1ccccc1 | 35.3 | 29.6 | 33.7 | 8.33 | 3.54 | 24.6 | 39.8 | 72.9 | 31.1 | > 100 |
| COc1cc(/C=C2\CC/C(=C\c3cc(OC)c(O)c(OC)c3)C2=O)cc(OC)c1O | > 49.2 | 3.74 | 7.44 | 8 | 23.1 | 7.32 | 18.7 | 13.9 | 3.19 | > 100 |
| O[C@@H]1C=C[C@]23CCN(Cc4cc5c(cc42)OCO5)[C@@H]3C1 | > 100 | > 100 | > 100 | > 100 | > 100 | > 100 | > 100 | > 100 | > 100 | > 100 |
| Cn1cccc1-c1ccc(-c2ccc(CO)[se]2)[se]1 | > 100 | 43.2 | > 78.5 | 71.4 | > 46.7 | 44.5 | > 100 | > 81 | > 100 | > 95.8 |
| C1=C(c2ccccc2)C(N2CCOCC2)Oc2ccccc21 (stereo not given) | > 100 | > 100 | > 100 | > 100 | > 100 | > 100 | > 100 | > 100 | > 100 | > 100 |
| O=c1[nH]c(=O)n(C2CC(O)C(CO)O2)cc1Oc1ccccc1 (stereo not given) | > 100 | > 100 | > 100 | > 100 | > 100 | > 100 | > 100 | > 100 | > 100 | > 100 |
| Cc1c(C(=O)c2ccc(N)c3ccccc23)c2ccccc2n1CCN1CCOCC1 | > 95.6 | 67.7 | 80.1 | > 67.7 | > 100 | > 100 | > 95.7 | > 91.5 | > 89.6 | 48.5 |
| CC(C)(C)OC(=O)N/C(C=O)=C\C1CCCCC1 | 40.3 | 59.7 | 70.6 | 52 | > 100 | 46.9 | 41.8 | 44.3 | 46 | 99.3 |
| CSC(=S)Nc1cc(C)cc(C)n1 | > 31.6 | > 31.6 | > 100 | > 31.6 | > 31.6 | > 31.6 | > 31.6 | > 31.6 | > 100 | > 31.6 |
| C[C@]12CC[C@H]3[C@@H](CCC4=CC(=O)C=C[C@@]43OC(=O)C(F)(F)F)[C@@H]1CCC2=O | > 100 | > 100 | > 100 | > 100 | > 100 | > 100 | > 100 | > 100 | > 100 | > 100 |
| COc1ccc(-n2c(=O)c3[nH]c(=S)[nH]c3n(-c3ccc(OC)cc3)c2=S)cc1 | > 100 | > 100 | > 100 | > 100 | > 100 | > 100 | > 100 | > 100 | > 100 | > 100 |
